Measured values from patent publication US5169855A, “Piperidine ether derivatives as psychotropic drugs or plant fungicides” (priority 1990, dated 1992).

What follows are compounds tested on Erysiphe graminis f. sp. tritici (assay: Test A: wheat powdery mildew disease control (wheat seedlings)). Settings: sprayed at 1000 to 2 ppm (rate not given per compound).
Type: in vivo
Procedure: The test compounds were dissolved in acetone in an amount equal to 6% of the final volume and then suspended at a concentration of from 1000 to 2 ppm in purified water containing 250 ppm of the surfactant TREM 014 (polyhydric alcohol esters). This suspension was sprayed to the point of run-off on wheat seedlings. The following day plants were inoculated with a spore dust of Erysiphe graminis f. sp. tritici, the causal agent of wheat powdery mildew, and incubated in a growth chamber at 20° C. for 7 days, when disease ratings were made.

Compound	disease control rating, Test A
Fc1ccc(COCC2CCN(Cc3ccc(Cl)cc3)CC2)cc1 [Example 188]	100%
COc1ccc(COCC2CCN(Cc3ccccc3)CC2)cc1 [Example 182]	63%
Fc1ccc(COCC2CCN(Cc3ccccc3)CC2)cc1 [Example 181]	87%
COC(=O)c1ccc(COCC2CCN(Cc3ccccc3)CC2)cc1 [Example 186]	0%
Fc1ccc(COCC2CCN(Cc3ccc4ccccc4c3)CC2)cc1 [Example 195]	99%
Fc1ccc(COCC2CCN(Cc3cccc4ccccc34)CC2)cc1 [Example 196]	0%
c1ccc(COCC2CCN(Cc3ccccc3)CC2)cc1 [Example 185]	29%
Fc1ccc(COC2CCN(Cc3ccccc3)CC2)cc1 [Example 315]	99%
CC(C)=CCN1CCC(COCc2ccc(F)cc2)CC1 [Example 314]	91%
CCCCCCN1CCC(COCc2ccc(F)cc2)CC1 [Example 312]	97%
COC(=O)c1ccc(CN2CCC(COCc3ccc(F)cc3)CC2)cc1 [Example 187]	98%

The compounds below were run on Phytophthora infestans (assay: not given). Settings: tomato late blight; sprayed at 1000 to 2 ppm (rate not given per compound).
Type: in vivo

Compound	disease control rating, Test F
Fc1ccc(COCC2CCN(Cc3ccc(Cl)cc3)CC2)cc1 [Example 188]	8%
COc1ccc(COCC2CCN(Cc3ccccc3)CC2)cc1 [Example 182]	0%
Fc1ccc(COCC2CCN(Cc3ccccc3)CC2)cc1 [Example 181]	0%
COC(=O)c1ccc(COCC2CCN(Cc3ccccc3)CC2)cc1 [Example 186]	0%
Fc1ccc(COCC2CCN(Cc3ccc4ccccc4c3)CC2)cc1 [Example 195]	0%
Fc1ccc(COCC2CCN(Cc3cccc4ccccc34)CC2)cc1 [Example 196]	26%
c1ccc(COCC2CCN(Cc3ccccc3)CC2)cc1 [Example 185]	0%
Fc1ccc(COC2CCN(Cc3ccccc3)CC2)cc1 [Example 315]	0%
CC(C)=CCN1CCC(COCc2ccc(F)cc2)CC1 [Example 314]	0%
CCCCCCN1CCC(COCc2ccc(F)cc2)CC1 [Example 312]	0%
COC(=O)c1ccc(CN2CCC(COCc3ccc(F)cc3)CC2)cc1 [Example 187]	0%

What follows are compounds tested on isolation-induced aggressive behavior (assay: Isolation-Induced Aggression in Mice). Settings: po.
Type: in vivo, mouse (male Balb/c)
Procedure: Male Balb/c mice (Charles River) were used. […] Isolated mice failing to consistently attack an intruder were eliminated from the colony.
Drug testing was carried out by treating the isolated mice with test drugs or standards. Fifteen min after dosing with drugs by the oral route (po), one isolated mouse was removed from its home cage and placed in the home cage of another isolate. Scoring was a yes or no response for each pair. A maximum of 3 min was allowed for an attack and the pair was separated immediately upon an attack. Selection of home cage and intruder mice was randomized for each test. Mice were treated and tested twice a week with at least a 2 day washout period between treatments.

Compound	inhibiting the isolation-induced aggressive behavior (in words)
Fc1ccc(COCC2CCN(Cc3ccccc3)CC2)cc1 [Example 181]	potent activities

What follows are compounds tested on Venturia inaequalis (assay: Test C: apple scab disease control (apple seedlings)). Settings: sprayed at 1000 to 2 ppm (rate not given per compound).
Type: in vivo
Procedure: (§1) The test compounds were dissolved in acetone in an amount equal to 6% of the final volume and then suspended at a concentration of from 1000 to 2 ppm in purified water containing 250 ppm of the surfactant TREM 014 (polyhydric alcohol esters). This suspension was sprayed to the point of run-off on apple seedlings. The following day plants were inoculated with a spore suspension of Venturia inaequalis, the causal agent of apple scab, and incubated in a saturated humidity chamber at 20° C. for 24 hours and then in a growth chamber at 22° C. for 11 days, when disease ratings were made.

Compound	disease control rating, Test C
Fc1ccc(COCC2CCN(Cc3ccc(Cl)cc3)CC2)cc1 [Example 188]	93%
COc1ccc(COCC2CCN(Cc3ccccc3)CC2)cc1 [Example 182]	0%
Fc1ccc(COCC2CCN(Cc3ccccc3)CC2)cc1 [Example 181]	55%
COC(=O)c1ccc(COCC2CCN(Cc3ccccc3)CC2)cc1 [Example 186]	81%
Fc1ccc(COCC2CCN(Cc3ccc4ccccc4c3)CC2)cc1 [Example 195]	68%
Fc1ccc(COCC2CCN(Cc3cccc4ccccc34)CC2)cc1 [Example 196]	90%
c1ccc(COCC2CCN(Cc3ccccc3)CC2)cc1 [Example 185]	28%
Fc1ccc(COC2CCN(Cc3ccccc3)CC2)cc1 [Example 315]	90%
CC(C)=CCN1CCC(COCc2ccc(F)cc2)CC1 [Example 314]	46%
CCCCCCN1CCC(COCc2ccc(F)cc2)CC1 [Example 312]	16%
COC(=O)c1ccc(CN2CCC(COCc3ccc(F)cc3)CC2)cc1 [Example 187]	51%

Each compound was assayed on Botrytis cinerea (assay: Test E: cucumber grey mold disease control (cucumber seedlings)). Settings: sprayed at 1000 to 2 ppm (rate not given per compound).
Type: in vivo
Procedure: as §1, with “cucumber” for “apple”, “Botrytis cinerea,” for “Venturia inaequalis,”, “cucumber grey mold,” for “apple scab,”, “48” for “24”, “greenhouse” for “growth chamber at 22° C.”, “5” for “11”

Compound	disease control rating, Test E
Fc1ccc(COCC2CCN(Cc3ccc(Cl)cc3)CC2)cc1 [Example 188]	18%
COC(=O)c1ccc(COCC2CCN(Cc3ccccc3)CC2)cc1 [Example 186]	0%
Fc1ccc(COCC2CCN(Cc3ccc4ccccc4c3)CC2)cc1 [Example 195]	0%
Fc1ccc(COCC2CCN(Cc3cccc4ccccc34)CC2)cc1 [Example 196]	0%
c1ccc(COCC2CCN(Cc3ccccc3)CC2)cc1 [Example 185]	0%
Fc1ccc(COC2CCN(Cc3ccccc3)CC2)cc1 [Example 315]	0%
CC(C)=CCN1CCC(COCc2ccc(F)cc2)CC1 [Example 314]	8%
CCCCCCN1CCC(COCc2ccc(F)cc2)CC1 [Example 312]	0%
COC(=O)c1ccc(CN2CCC(COCc3ccc(F)cc3)CC2)cc1 [Example 187]	0%

Each compound was assayed on Cercosporidum personatum (assay: Test D: peanut late leaf spot disease control (peanut seedlings)). Settings: sprayed at 1000 to 2 ppm (rate not given per compound).
Type: in vivo
Procedure: The test compounds were dissolved in acetone in an amount equal to 6% of the final volume and then suspended at a concentration of from 1000 to 2 ppm in purified water containing 250 ppm of the surfactant TREM 014 (polyhydric alcohol esters). This suspension was sprayed to the point of run-off on peanut seedlings. The following day plants were inoculated with a spore suspension of Cercosporidum personatum, the causal agent of peanut late leaf spot, and incubated in a saturated humidity chamber at 22° C. for 24 hours and then in a high humidity chamber at 27° C. for 7 days, and then in a growth chamber at 29° C. for 7 days, when disease ratings were made.

Compound	disease control rating, Test D
Fc1ccc(COCC2CCN(Cc3ccc(Cl)cc3)CC2)cc1 [Example 188]	82%
COc1ccc(COCC2CCN(Cc3ccccc3)CC2)cc1 [Example 182]	0%
Fc1ccc(COCC2CCN(Cc3ccccc3)CC2)cc1 [Example 181]	82%
COC(=O)c1ccc(COCC2CCN(Cc3ccccc3)CC2)cc1 [Example 186]	0%
Fc1ccc(COCC2CCN(Cc3ccc4ccccc4c3)CC2)cc1 [Example 195]	46%
Fc1ccc(COCC2CCN(Cc3cccc4ccccc34)CC2)cc1 [Example 196]	0%
c1ccc(COCC2CCN(Cc3ccccc3)CC2)cc1 [Example 185]	26%
Fc1ccc(COC2CCN(Cc3ccccc3)CC2)cc1 [Example 315]	46%
CC(C)=CCN1CCC(COCc2ccc(F)cc2)CC1 [Example 314]	75%
CCCCCCN1CCC(COCc2ccc(F)cc2)CC1 [Example 312]	51%
COC(=O)c1ccc(CN2CCC(COCc3ccc(F)cc3)CC2)cc1 [Example 187]	0%

The compounds below were run on Pyricularia oryzae (assay: not given). Settings: rice blast; sprayed at 1000 to 2 ppm (rate not given per compound).
Type: in vivo

Compound	disease control rating, Test H
Fc1ccc(COCC2CCN(Cc3ccc(Cl)cc3)CC2)cc1 [Example 188]	0%
COc1ccc(COCC2CCN(Cc3ccccc3)CC2)cc1 [Example 182]	0%
Fc1ccc(COCC2CCN(Cc3ccccc3)CC2)cc1 [Example 181]	0%
COC(=O)c1ccc(COCC2CCN(Cc3ccccc3)CC2)cc1 [Example 186]	0%
Fc1ccc(COCC2CCN(Cc3ccc4ccccc4c3)CC2)cc1 [Example 195]	0%
Fc1ccc(COCC2CCN(Cc3cccc4ccccc34)CC2)cc1 [Example 196]	0%
c1ccc(COCC2CCN(Cc3ccccc3)CC2)cc1 [Example 185]	0%
Fc1ccc(COC2CCN(Cc3ccccc3)CC2)cc1 [Example 315]	0%
CC(C)=CCN1CCC(COCc2ccc(F)cc2)CC1 [Example 314]	0%
CCCCCCN1CCC(COCc2ccc(F)cc2)CC1 [Example 312]	0%
COC(=O)c1ccc(CN2CCC(COCc3ccc(F)cc3)CC2)cc1 [Example 187]	0%

The compounds below were run on Rhizoctonia solani (assay: Test I: rice sheath blight disease control (rice seedlings)). Settings: sprayed at 1000 to 2 ppm (rate not given per compound).
Type: in vivo
Procedure: The test compounds were dissolved in acetone in an amount equal to 6% of the final volume and then suspended at a concentration of from 1000 to 2 ppm in purified water containing 250 ppm of the surfactant TREM 014 (polyhydric alcohol esters). This suspension was sprayed to the point of run-off on rice seedlings. The following day plants were inoculated with a mycelial suspension of Rhizoctonia solani, the causal agent of rice sheath blight, and incubated in a saturated humidity chamber at 27° C. for 48 hours and then in a growth chamber at 29° C. for 4 days, when disease ratings were made.

Compound	disease control rating, Test I
Fc1ccc(COCC2CCN(Cc3ccc(Cl)cc3)CC2)cc1 [Example 188]	0%
COc1ccc(COCC2CCN(Cc3ccccc3)CC2)cc1 [Example 182]	0%
Fc1ccc(COCC2CCN(Cc3ccccc3)CC2)cc1 [Example 181]	0%
COC(=O)c1ccc(COCC2CCN(Cc3ccccc3)CC2)cc1 [Example 186]	0%
Fc1ccc(COCC2CCN(Cc3ccc4ccccc4c3)CC2)cc1 [Example 195]	0%
Fc1ccc(COCC2CCN(Cc3cccc4ccccc34)CC2)cc1 [Example 196]	0%
c1ccc(COCC2CCN(Cc3ccccc3)CC2)cc1 [Example 185]	0%
Fc1ccc(COC2CCN(Cc3ccccc3)CC2)cc1 [Example 315]	19%
CC(C)=CCN1CCC(COCc2ccc(F)cc2)CC1 [Example 314]	39%
CCCCCCN1CCC(COCc2ccc(F)cc2)CC1 [Example 312]	0%
COC(=O)c1ccc(CN2CCC(COCc3ccc(F)cc3)CC2)cc1 [Example 187]	0%

These compounds were tested on Plasmopara viticola (assay: Test G: grape downy mildew disease control (grape seedlings)). Settings: sprayed at 1000 to 2 ppm (rate not given per compound).
Type: in vivo
Procedure: The test compounds were dissolved in acetone in an amount equal to 6% of the final volume and then suspended at a concentration of from 1000 to 2 ppm in purified water containing 250 ppm of the surfactant TREM 014 (polyhydric alcohol esters). This suspension was sprayed to the point of run-off on grape seedlings. The following day plants were inoculated with a spore suspension of Plasmopara viticola, the causal agent of grape downy mildew, and incubated in a dew chamber at 20° C. for 24 hours and then in a growth chamber a 20° C. for 7 days, when disease ratings were made.

Compound	disease control rating, Test G
Fc1ccc(COCC2CCN(Cc3ccc(Cl)cc3)CC2)cc1 [Example 188]	89%
Fc1ccc(COCC2CCN(Cc3cccc4ccccc34)CC2)cc1 [Example 196]	40%

These compounds were tested on Puccinia recondita (assay: Test B: wheat leaf rust disease control (wheat seedlings)). Settings: sprayed at 1000 to 2 ppm (rate not given per compound).
Type: in vivo
Procedure: The test compounds were dissolved in acetone in an amount equal to 6% of the final volume and then suspended at a concentration of from 1000 to 2 ppm in purified water containing 250 ppm of the surfactant TREM 014 (polyhydric alcohol esters). This suspension was sprayed to the point of run-off on wheat seedlings.

Compound	disease control rating, Test B
Fc1ccc(COCC2CCN(Cc3ccc(Cl)cc3)CC2)cc1 [Example 188]	72%
COc1ccc(COCC2CCN(Cc3ccccc3)CC2)cc1 [Example 182]	27%
Fc1ccc(COCC2CCN(Cc3ccccc3)CC2)cc1 [Example 181]	37%
Fc1ccc(COCC2CCN(Cc3ccc4ccccc4c3)CC2)cc1 [Example 195]	73%
c1ccc(COCC2CCN(Cc3ccccc3)CC2)cc1 [Example 185]	0%
Fc1ccc(COC2CCN(Cc3ccccc3)CC2)cc1 [Example 315]	52%
CCCCCCN1CCC(COCc2ccc(F)cc2)CC1 [Example 312]	27%
COC(=O)c1ccc(CN2CCC(COCc3ccc(F)cc3)CC2)cc1 [Example 187]	96%
